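GI50 is the concentration that inhibits growth by half. The concentration for full growth arrest is given as TGI.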
Assays:
Experiment in all cases: NCI tumour cell line growth inhibition, 384-well format
SF-295 CNS = tested on: SF-295 CNS
DU-145 prostate = tested on: DU-145 prostate
MDA-MB-231 breast = tested on: MDA-MB-231 breast
SW-620 colon = tested on: SW-620 colon
U251 glioblastoma = tested on: U251 glioblastoma
NCI-H460 NSCLC = tested on: NCI-H460 NSCLC
MOLT-4 leukemia = tested on: MOLT-4 leukemia
SK-MEL-28 melanoma = tested on: SK-MEL-28 melanoma
HL-60(TB) leukemia = tested on: HL-60(TB) leukemia
SN12C renal = tested on: SN12C renal
786-0 renal = tested on: 786-0 renal
BT-549 breast = tested on: BT-549 breast
LOX IMVI melanoma = tested on: LOX IMVI melanoma
PC-3 prostate = tested on: PC-3 prostate
A498 renal = tested on: A498 renal
HOP-62 NSCLC = tested on: HOP-62 NSCLC
SR leukemia = tested on: SR leukemia
ACHN renal = tested on: ACHN renal
UACC-257 melanoma = tested on: UACC-257 melanoma
NCI-H522 lung = tested on: NCI-H522 lung
HT29 colon = tested on: HT29 colon
T-47D breast = tested on: T-47D breast
SK-OV-3 ovarian = tested on: SK-OV-3 ovarian
NCI-H322M lung = tested on: NCI-H322M lung
HS 578T breast = tested on: HS 578T breast
UACC-62 melanoma = tested on: UACC-62 melanoma
UO-31 renal = tested on: UO-31 renal
SNB-19 CNS = tested on: SNB-19 CNS
COLO 205 colon = tested on: COLO 205 colon
OVCAR-4 ovarian = tested on: OVCAR-4 ovarian
OVCAR-8 ovarian = tested on: OVCAR-8 ovarian
RPMI-8226 leukemia = tested on: RPMI-8226 leukemia
CAKI-1 renal = tested on: CAKI-1 renal
EKVX NSCLC = tested on: EKVX NSCLC
RXF 393 renal = tested on: RXF 393 renal
HCT-15 colon = tested on: HCT-15 colon
NCI-H226 lung = tested on: NCI-H226 lung
A549 NSCLC = tested on: A549 NSCLC
MCF7 breast = tested on: MCF7 breast
MDA-MB-468 breast = tested on: MDA-MB-468 breast
NCI-H23 lung = tested on: NCI-H23 lung
HOP-92 NSCLC = tested on: HOP-92 NSCLC
IGROV1 ovarian = tested on: IGROV1 ovarian
K-562 leukemia = tested on: K-562 leukemia
OVCAR-5 ovarian = tested on: OVCAR-5 ovarian
CCRF-CEM leukemia = tested on: CCRF-CEM leukemia
M14 melanoma = tested on: M14 melanoma
SNB-75 CNS = tested on: SNB-75 CNS
SK-MEL-5 melanoma = tested on: SK-MEL-5 melanoma
KM12 colon = tested on: KM12 colon
TK-10 renal = tested on: TK-10 renal
NCI/ADR-RES ovarian = tested on: NCI/ADR-RES ovarian
MALME-3M melanoma = tested on: MALME-3M melanoma
HCC-2998 colon = tested on: HCC-2998 colon
SF-539 CNS = tested on: SF-539 CNS
MDA-MB-435 melanoma = tested on: MDA-MB-435 melanoma
SF-268 CNS = tested on: SF-268 CNS

`CCC[C@H](N[C@@H]1CCc2cc(F)cc(F)c2C1)C(=O)Nc1cn(C(C)(C)CNCC(C)(C)C)cn1` was tested, and the GI50 (SF-295 CNS) was 13.8 µM, the TGI (SF-295 CNS) was 26.9 µM and the GI50 (DU-145 prostate) was 17.2 µM. For the same molecule, the TGI (DU-145 prostate) was 48.8 µM, the GI50 (MDA-MB-231 breast) was 12.3 µM and the TGI (MDA-MB-231 breast) was 27.1 µM. The GI50 (SW-620 colon) was 16.2 µM, the TGI (SW-620 colon) was 32.2 µM and the GI50 (U251 glioblastoma) was 15.5 µM. For the same molecule, the TGI (U251 glioblastoma) was 29.3 µM, the GI50 (NCI-H460 NSCLC) was 14.9 µM and the TGI (NCI-H460 NSCLC) was 28.9 µM. It also gave a GI50 (MOLT-4 leukemia) of 4.04 µM, a TGI (MOLT-4 leukemia) of 15.2 µM and a GI50 (SK-MEL-28 melanoma) of 12.7 µM. It also gave a TGI (SK-MEL-28 melanoma) of 25.9 µM, a GI50 (HL-60(TB) leukemia) of 2.77 µM and a TGI (HL-60(TB) leukemia) of 14.5 µM. For the same molecule, the GI50 (SN12C renal) was 19.4 µM, the TGI (SN12C renal) was 42.9 µM and the GI50 ([…]-0 renal) was 13.4 µM. It also gave a TGI (786-0 renal) of 26.5 µM, a GI50 (BT-549 breast) of 9.95 µM and a TGI (BT-549 breast) of 22.1 µM. It also gave a GI50 (LOX IMVI melanoma) of 17.8 µM, a TGI (LOX IMVI melanoma) of 31.9 µM and a GI50 (PC-3 prostate) of 7.53 µM. The TGI (PC-3 prostate) was 21.4 µM, the GI50 (A498 renal) was 10.5 µM and the TGI (A498 renal) was 22.8 µM. For the same molecule, the GI50 (HOP-62 NSCLC) was 15.6 µM, the TGI (HOP-62 NSCLC) was 30.1 µM and the GI50 (SR leukemia) was 4.2 µM. It also gave a TGI (SR leukemia) of 16.2 µM, a GI50 (ACHN renal) of 15.4 µM and a TGI (ACHN renal) of 35.2 µM. It also gave a GI50 (UACC-257 melanoma) of 0.535 µM, a TGI (UACC-257 melanoma) of 18.4 µM and a GI50 (NCI-H522 lung) of 13.2 µM. For the same molecule, the TGI (NCI-H522 lung) was 28.8 µM, the GI50 (HT29 colon) was 11 µM and the TGI (HT29 colon) was 23.7 µM. It also gave a GI50 (T-47D breast) of 2.11 µM, a TGI (T-47D breast) of 17 µM and a GI50 (SK-OV-3 ovarian) of 14.2 µM. It also gave a TGI (SK-OV-3 ovarian) of 29.5 µM, a GI50 (NCI-H322M lung) of 20.8 µM and a TGI (NCI-H322M lung) of 55.4 µM. It also gave a GI50 (HS 578T breast) of 12.3 µM, a TGI (HS 578T breast) of 25.1 µM and a GI50 (UACC-62 melanoma) of 15.7 µM. The TGI (UACC-62 melanoma) was 29.3 µM, the GI50 (UO-31 renal) was 14.6 µM and the TGI (UO-31 renal) was 28.5 µM. It also gave a GI50 (SNB-19 CNS) of 16.8 µM, a TGI (SNB-19 CNS) of 39.7 µM and a GI50 (COLO 205 colon) of 13.1 µM. The TGI (COLO 205 colon) was 36.1 µM, the GI50 (OVCAR-4 ovarian) was 1.09 µM and the TGI (OVCAR-4 ovarian) was 35.9 µM. For the same molecule, the GI50 (OVCAR-8 ovarian) was 16.1 µM, the TGI (OVCAR-8 ovarian) was 36.5 µM and the GI50 (RPMI-8226 leukemia) was 0.358 µM. For the same molecule, the TGI (RPMI-8226 leukemia) was 11.2 µM, the GI50 (CAKI-1 renal) was 14.4 µM and the TGI (CAKI-1 renal) was 29.5 µM. It also gave a GI50 (EKVX NSCLC) of 14.5 µM, a TGI (EKVX NSCLC) of 44.7 µM and a GI50 (RXF 393 renal) of 10.7 µM. The TGI (RXF 393 renal) was 24.1 µM, the GI50 (HCT-15 colon) was 8.15 µM and the TGI (HCT-15 colon) was 21.3 µM. It also gave a GI50 (NCI-H226 lung) of 13.8 µM, a TGI (NCI-H226 lung) of 28.3 µM and a GI50 (A549 NSCLC) of 13.9 µM. For the same molecule, the TGI (A549 NSCLC) was 46.8 µM, the GI50 (MCF7 breast) was 5.11 µM and the TGI (MCF7 breast) was 19.8 µM. It also gave a TGI (MDA-MB-468 breast) of 1.75 µM, a GI50 (NCI-H23 lung) of 11.9 µM and a TGI (NCI-H23 lung) of 26 µM. The GI50 (HOP-92 NSCLC) was 11.7 µM, the TGI (HOP-92 NSCLC) was 24.1 µM and the GI50 (IGROV1 ovarian) was 17.3 µM. The TGI (IGROV1 ovarian) was 44.6 µM, the GI50 (K-562 leukemia) was 10.6 µM and the TGI (K-562 leukemia) was 22.8 µM. The GI50 (OVCAR-5 ovarian) was 19.7 µM, the TGI (OVCAR-5 ovarian) was 49.4 µM and the GI50 (CCRF-CEM leukemia) was 7.5 µM. It also gave a TGI (CCRF-CEM leukemia) of 21 µM, a GI50 (M14 melanoma) of 13.8 µM and a TGI (M14 melanoma) of 27 µM. For the same molecule, the GI50 (SNB-75 CNS) was 15.8 µM, the TGI (SNB-75 CNS) was 42.8 µM and the GI50 (SK-MEL-5 melanoma) was 11.2 µM. It also gave a TGI (SK-MEL-5 melanoma) of 23.4 µM, a GI50 (KM12 colon) of 14.6 µM and a TGI (KM12 colon) of 29.8 µM. The GI50 (TK-10 renal) was 16 µM, the TGI (TK-10 renal) was 46 µM and the GI50 (NCI/ADR-RES ovarian) was 10.9 µM. For the same molecule, the TGI (NCI/ADR-RES ovarian) was 24.3 µM, the GI50 (MALME-3M melanoma) was 2.14 µM and the TGI (MALME-3M melanoma) was 12.2 µM. For the same molecule, the GI50 (HCC-2998 colon) was 6.98 µM, the TGI (HCC-2998 colon) was 19.9 µM and the GI50 (SF-539 CNS) was 16.5 µM. It also gave a TGI (SF-539 CNS) of 30.3 µM, a GI50 (MDA-MB-435 melanoma) of 16.6 µM and a TGI (MDA-MB-435 melanoma) of 35.1 µM. For the same molecule, the GI50 (SF-268 CNS) was 15.3 µM and the TGI (SF-268 CNS) was 31.3 µM.

Reference: PubChem BioAssay (NCI)
